Measured values from US20250230193A1, “CYCLIC COMPOUND HAVING SELECTIVE KRAS INHIBITORY EFFECT ON HRAS AND NRAS” (CHUGAI SEIYAKU KABUSHIKI KAISHA, priority 2022, published 2025).
Where a SMILES comes first, the peptide text is derived from it. Bridges are numbered along the chain shown (N, C = ends). [ ]: non-standard residue; d: D form. The star is where a group is joined. hPhe(3-Cl-4-CF3) = N[C@@H](CCc1ccc(C(F)(F)F)c(Cl)c1)C(=O)O; NPrPhe(4-CF3) = CCCN[C@@H](Cc1ccc(C(F)(F)F)cc1)C(=O)O; NMeGly(cPent) = CN[C@H](C(=O)O)C1CCCC1; Hyp = O=C(O)[C@@H]1C[C@@H](O)CN1; NMeD = CN[C@@H](CC(=O)O)C(=O)O; NMeL = CN[C@@H](CC(C)C)C(=O)O; Morpholide = C1CN(*)CCO1; Ac5c = NC1(C(=O)O)CCCC1; Sar = CNCC(=O)O

Experiments:
[1] = biological target: GDP-bound NRAS wild-type protein (Homo sapiens, UniProt P01111); assay: Binding to NRAS by surface plasmon resonance (SPR), Single Cycle Kinetics
Sequence of GDP-bound NRAS wild-type protein (P01111 whole entry): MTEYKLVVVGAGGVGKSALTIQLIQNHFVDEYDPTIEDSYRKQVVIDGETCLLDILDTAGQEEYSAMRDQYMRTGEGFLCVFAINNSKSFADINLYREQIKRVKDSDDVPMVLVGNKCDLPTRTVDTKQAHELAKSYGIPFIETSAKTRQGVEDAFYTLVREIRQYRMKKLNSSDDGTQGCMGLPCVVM

[2] = biological target: GDP-bound HRAS wild-type protein (Homo sapiens, UniProt P01112); assay: Binding to HRAS by surface plasmon resonance (SPR), Single Cycle Kinetics
Sequence of GDP-bound HRAS wild-type protein (P01112 whole entry): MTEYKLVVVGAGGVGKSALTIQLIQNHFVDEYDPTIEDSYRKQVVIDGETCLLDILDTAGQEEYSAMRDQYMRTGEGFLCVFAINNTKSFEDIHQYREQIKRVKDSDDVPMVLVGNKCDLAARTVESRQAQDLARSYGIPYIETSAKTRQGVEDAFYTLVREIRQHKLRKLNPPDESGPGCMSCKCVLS

[3] = GDP-bound NRAS wild-type vs GDP-bound KRAS wild-type, SPR
[4] = GDP-bound HRAS wild-type vs GDP-bound KRAS wild-type, SPR

CCC[C@H]1C(=O)N[C@@H]([C@@H](C)CC)C(=O)N(C)CC(=O)N(C)[C@H]2C/C=C\CCN(C2=O)[C@@H](Cc2ccc(C(F)(F)F)cc2)C(=O)N(C)CC(=O)N[C@@H](CCc2ccc3c(C)c(C)n(C)c3c2)C(=O)N2C[C@H](OCC)C[C@H]2C(=O)NC2(CC(C)(C)C2)C(=O)N(C)[C@@H](C2CCCC2)C(=O)N(C)[C@H](C(=O)N(C)C)CC(=O)N1C [PP2893]
NRAS/KRAS (ratio of KD value with respect to GDP-bound NRAS wild-type protein to KD value with respect to KRAS) ([1]; KD ratio NRAS/KRAS, class symbols): A (a compound having 10 or more and less than 20 is denoted as A) | HRAS/KRAS (ratio of KD value with respect to GDP-bound HRAS wild-type protein to KD value with respect to KRAS) ([2]; KD ratio HRAS/KRAS, class symbols): A (a compound having 10 or more and less than 20 is denoted as A)

CC[C@H](C)[C@@H]1NC(=O)[C@@H]2CCCCc3ccc(cc3)C[C@@H](C(=O)N(C)CC(=O)N[C@@H](CCc3ccc(C(F)(F)F)c(OC)c3)C(=O)N3C[C@H](OC4CCCC4)C[C@H]3C(=O)NC3(CC(C)(C)C3)C(=O)N(C)[C@@H](C3CCCC3)C(=O)N(C)[C@H](C(=O)N(C)C)CC(=O)N2C)N2CC/C=C\C[C@@H](C2=O)N(C)C(=O)CN(C)C1=O [PP3080]
NRAS/KRAS (ratio of KD value with respect to GDP-bound NRAS wild-type protein to KD value with respect to KRAS) ([1]; KD ratio NRAS/KRAS, SPR, GDP-bound wild-type proteins): A (a compound having 10 or more and less than 20 is denoted as A) | HRAS/KRAS (ratio of KD value with respect to GDP-bound HRAS wild-type protein to KD value with respect to KRAS) ([2]; KD ratio HRAS/KRAS, SPR, GDP-bound wild-type proteins): B (a compound having 3 or more and less than 10 is denoted as B)

CC[C@H](C)[C@@H]1NC(=O)[C@H](CC(C)C)N(C)C(=O)C[C@@H](C(=O)N(C)C)N(C)C(=O)[C@H](C2CCCC2)N(C)C(=O)C2(CCC2)NC(=O)[C@@H]2C[C@@H](C)CN2C(=O)[C@H](CCc2cc(F)c(C(F)(F)F)c(F)c2)NC(=O)CN(C)C(=O)[C@H](Cc2ccc(C)cc2)N2CC/C=C\C[C@@H](C2=O)N(C)C(=O)CN(C)C1=O [PP1866]
NRAS/KRAS (ratio of KD value for NRAS to KD value for KRAS) [1, 3]: A (a compound having 10 or more and less than 20 is denoted as A) | HRAS/KRAS (ratio of KD value for HRAS to KD value for KRAS) [2, 4]: B (a compound having 3 or more and less than 10 is denoted as B)

CCO[C@@H]1C[C@H]2C(=O)NC3(CCC3)C(=O)N(C)[C@@H](C3CCCC3)C(=O)N(C)[C@H](C(=O)N(C)CC)CC(=O)N(C)[C@@H](CC)C(=O)N[C@@H]([C@@H](C)CC)C(=O)N(C)CC(=O)N(C)[C@H]3C/C=C\CCN(C3=O)[C@@H](Cc3ccc(C)cc3)C(=O)N(C)CC(=O)N[C@@H](CCc3ccc(C(F)(F)F)c(OC)c3)C(=O)N2C1 [PP1869]
NRAS/KRAS (ratio of KD value for NRAS to KD value for KRAS) [1, 3]: A (a compound having 10 or more and less than 20 is denoted as A) | HRAS/KRAS (ratio of KD value for HRAS to KD value for KRAS) [2, 4]: A (a compound having 10 or more and less than 20 is denoted as A)

CCC[C@H]1C(=O)N[C@@H]([C@@H](C)CC)C(=O)N[C@@H](C)C(=O)N(C)[C@H]2C/C=C\CCN(C2=O)[C@@H](Cc2ccc(C(F)(F)F)cc2)C(=O)N(C)CC(=O)N[C@@H](CCc2cc(F)c(C(F)(F)F)c(F)c2)C(=O)N2C[C@H](OCC)C[C@H]2C(=O)NC2(CC(C)(C)C2)C(=O)N(C)[C@@H](C2CCCC2)C(=O)N(C)[C@H](C(=O)N(C)C)CC(=O)N1C [PP1927]
NRAS/KRAS (ratio of KD value for NRAS to KD value for KRAS) [1, 3]: A (a compound having 10 or more and less than 20 is denoted as A) | HRAS/KRAS (ratio of KD value for HRAS to KD value for KRAS) [2, 4]: A (a compound having 10 or more and less than 20 is denoted as A)

CCCN1C(=O)CN(C)C(=O)CN(C)C(=O)[C@H]([C@@H](C)CC)NC(=O)[C@H](CC(C)C)N(C)C(=O)C[C@@H](C(=O)N2CCOCC2)N(C)C(=O)[C@H](C2CCCC2)N(C)C(=O)C2(CCCC2)NC(=O)[C@@H]2C[C@@H](O)CN2C(=O)[C@H](CCc2ccc(C(F)(F)F)c(Cl)c2)NC(=O)CN(C)C(=O)[C@@H]1Cc1ccc(C(F)(F)F)cc1 [PP0241] ([NMeL]I[Sar][Sar][NPrPhe(4-CF3)][Sar][hPhe(3-Cl-4-CF3)][Hyp][Ac5c][NMeGly(cPent)][NMeD]-Morpholide; lactam N-11)
NRAS/KRAS (ratio of KD for GDP-bound NRAS wild-type to KD for KRAS) ([1]; KD ratio NRAS/KRAS, SPR): B (a compound having 3 or more and less than 10 is denoted as B) | HRAS/KRAS (ratio of KD for GDP-bound HRAS wild-type to KD for KRAS) ([2]; KD ratio HRAS/KRAS, SPR): C (A compound having a KD ratio of 0.1 or more and less than 3 is denoted as C)

CCCOC[C@H]1C(=O)N[C@@H]([C@@H](C)OCC)C(=O)N2CCC[C@H]2C(=O)N(C)[C@H]2C/C=C\CCN(C2=O)[C@@H](Cc2ccc(C)cc2)C(=O)N(C)CC(=O)N[C@@H](CCc2cc(F)c(C(F)(F)F)c(F)c2)C(=O)N2C[C@H](OCC)C[C@H]2C(=O)NC2(CC(C)(C)C2)C(=O)N(C)[C@@H](C2CCCC2)C(=O)N(C)[C@H](C(=O)N(C)CC)CC(=O)N1C [PP2432]
NRAS/KRAS (ratio of KD value with respect to NRAS to KD value with respect to KRAS) ([1]; SPR, GDP-bound NRAS wild-type vs GDP-bound KRAS wild-type): A (a compound having 10 or more and less than 20 is denoted as A) | HRAS/KRAS (ratio of KD value with respect to HRAS to KD value with respect to KRAS) ([2]; SPR, GDP-bound HRAS wild-type vs GDP-bound KRAS wild-type): A (a compound having 10 or more and less than 20 is denoted as A)
